Test results reported in ChEMBL document CHEMBL1201862, “PubChem BioAssay data set” (2004).
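Cells were grown in 96-well plates and exposed to each compound for 48 hours at five concentrations; endpoints were interpolated linearly between bracketing concentrations, or set to the highest concentration if not reached. GI50 marks 50% less growth.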 Active and inactive are the calls of the source. Rule as the data show it: active = GI50 up to about 1.1 µM and inactive = higher.

What was measured:
Assay in all cases: NCI tumour cell line growth inhibition, 48 h
XF498 = system: XF498
DMS-273 = system: DMS-273
HOP-18 = system: HOP-18
DMS-114 = system: DMS-114
KM-20L2 = system: KM-20L2
RXF 631 = system: RXF 631
DLD-1 = system: DLD-1
M19-MEL = system: M19-MEL
LXFL 529 = system: LXFL 529

Measured: GI50

COc1nc(NC2OCC(OC(C)=O)C(OC(C)=O)C2OC(C)=O)c(/N=C(\C)C(C)=O)c(=O)n1C (centres undefined)
inactive: XF498 > 100 µM | DMS-273 > 100 µM | HOP-18 > 100 µM | DMS-114 > 100 µM | KM-20L2 > 100 µM | RXF 631 > 100 µM | DLD-1 > 100 µM

O=c1cc(/C=C/c2ccccc2)c2ccc(O/C(=C\c3ccccc3)c3nc4ccccc4c(=O)o3)cc2o1
inactive: XF498 14.9 µM | DMS-273 23 µM | DMS-114 15.1 µM | M19-MEL 25.3 µM | LXFL 529 14.8 µM | KM-20L2 31.5 µM | RXF 631 28.1 µM | DLD-1 26.7 µM

CN1C(=O)CC2(C)c3cc(C=O)ccc3N(C)C12 (centres undefined)
inactive: XF498 > 100 µM | HOP-18 > 100 µM | DMS-114 > 100 µM | M19-MEL > 100 µM | LXFL 529 > 100 µM | KM-20L2 > 100 µM | RXF 631 > 100 µM | DLD-1 > 100 µM

CCCCc1c2c(nc3c1CCCC3O)/C(=C/c1ccccc1)CCC2 (centres undefined)
inactive: XF498 13.2 µM | DMS-273 20.7 µM | HOP-18 24.4 µM | DMS-114 22.9 µM | M19-MEL 23.1 µM | LXFL 529 34.1 µM | KM-20L2 35.2 µM

COP(=O)(OC)C(=O)N1N(c2ccc([N+](=O)[O-])cc2)C(=O)C(C)NC1(NNc1ccc([N+](=O)[O-])cc1)P(=O)(OC)OC (centres undefined)
inactive: XF498 > 100 µM | DMS-273 > 100 µM | DMS-114 > 100 µM | M19-MEL > 100 µM | LXFL 529 57.8 µM | KM-20L2 > 100 µM | DLD-1 > 100 µM

COC(=O)C1CCC(N2C(=O)CCC2C(=O)OC)=N1 (centres undefined)
inactive: XF498 > 100 µM | DMS-273 > 100 µM | HOP-18 > 100 µM | M19-MEL > 100 µM | LXFL 529 > 100 µM | KM-20L2 > 100 µM | RXF 631 > 100 µM | DLD-1 > 100 µM

COC(=O)C(=O)C(C(=O)C(=O)Nc1ccc(Cl)cc1C)c1nc2ccc(C(=O)c3ccccc3)cc2nc1O (centres undefined)
inactive: DMS-273 63.4 µM | HOP-18 > 100 µM | DMS-114 36 µM | M19-MEL > 100 µM | LXFL 529 65.2 µM | KM-20L2 > 100 µM | RXF 631 > 100 µM | DLD-1 55.8 µM

CCOC(=O)NC(=O)c1cn(CCCCCOC(=O)NCCCCCCNC(=O)OCCCCCn2cc(C(=O)NC(=O)OCC)c(=O)[nH]c2=O)c(=O)[nH]c1=O
inactive: DMS-273 > 100 µM | HOP-18 > 100 µM | DMS-114 > 100 µM | M19-MEL > 100 µM | LXFL 529 > 100 µM | KM-20L2 > 100 µM | DLD-1 > 100 µM

O=C(O)C1=C(C(=O)O)Oc2ccccc2O1
inactive: XF498 > 100 µM | DMS-273 > 100 µM | HOP-18 > 100 µM | DMS-114 > 100 µM | M19-MEL > 100 µM | LXFL 529 > 100 µM | KM-20L2 > 100 µM | DLD-1 > 100 µM

CC(=O)c1ccc(NC(=O)C(=O)CC(=O)c2sc(-n3nc(-c4ccccc4)cc3-c3ccccc3)nc2C)cc1
inactive: DMS-273 > 100 µM | DMS-114 > 100 µM | M19-MEL > 100 µM | LXFL 529 > 100 µM | KM-20L2 > 100 µM | RXF 631 > 100 µM | DLD-1 > 100 µM

CC1(C)C2=CCCC(=O)[C@@]2(C)CC[C@@H]1O
inactive: XF498 > 100 µM | DMS-273 > 100 µM | HOP-18 > 100 µM | DMS-114 > 100 µM | M19-MEL > 100 µM | LXFL 529 > 100 µM | KM-20L2 > 100 µM | DLD-1 > 100 µM

CCOC(=O)C(=Cc1ccc(Oc2ccccc2)cc1)C(=O)OCC
inactive: XF498 4.32 µM | DMS-273 1.69 µM | HOP-18 13.8 µM | DMS-114 3.07 µM | LXFL 529 2.29 µM | KM-20L2 4.65 µM | RXF 631 3.03 µM | DLD-1 2.14 µM

O=C1c2ccccc2C(=O)C2C1C1C(=O)c3ccccc3C(=O)C21 (centres undefined)
inactive: DMS-273 > 100 µM | HOP-18 8.69 µM | DMS-114 > 100 µM | M19-MEL 45.4 µM | LXFL 529 > 100 µM | KM-20L2 > 100 µM | RXF 631 > 100 µM | DLD-1 15.2 µM

CN1Nc2ccccc2CC1=O
inactive: XF498 > 100 µM | DMS-273 > 100 µM | HOP-18 > 100 µM | DMS-114 > 100 µM | M19-MEL > 100 µM | KM-20L2 > 100 µM | DLD-1 > 100 µM

Cc1ccc(S(=O)(=O)NNC(=O)c2sc(-c3nc(C)c(C(=O)NNS(=O)(=O)c4ccc(C)cc4)s3)nc2C)cc1
inactive: M19-MEL > 100 µM | LXFL 529 62.8 µM | KM-20L2 > 100 µM | DLD-1 73.8 µM

COC(=O)[C@]1(C)C(OC)=CC(=O)C2C1[C@H]1CCC[C@@H]21 (some centres undefined)
inactive: XF498 > 100 µM | HOP-18 > 100 µM | DMS-114 > 100 µM | M19-MEL > 100 µM | LXFL 529 > 100 µM | KM-20L2 > 100 µM | DLD-1 > 100 µM

Cc1cc2c(c(C(N)=O)c1C)-c1cccc(F)c1C2=O
inactive: XF498 57.3 µM | DMS-273 > 100 µM | DMS-114 > 100 µM | M19-MEL > 100 µM | LXFL 529 > 100 µM | KM-20L2 > 100 µM | DLD-1 > 100 µM

CCN(CC)CCNc1ccc2ncn3c4ccccc4c(=O)c1c23
inactive: HOP-18 10 µM | DMS-114 5.07 µM | M19-MEL 3.63 µM | LXFL 529 3.77 µM | KM-20L2 3.85 µM | DLD-1 3.5 µM

O=C(N/C(=C\c1ccccc1Cl)c1nc2ccccc2[nH]1)c1ccccc1
inactive: XF498 23.8 µM | DMS-114 35 µM | M19-MEL 33 µM | LXFL 529 21.9 µM | KM-20L2 22.8 µM | RXF 631 26.5 µM | DLD-1 30.2 µM

Cc1ccc(-c2cc(=O)c3cc(C)c(C)c(C(=O)O)c3o2)cc1C
inactive: DMS-273 > 100 µM | HOP-18 > 100 µM | DMS-114 > 100 µM | M19-MEL > 100 µM | LXFL 529 > 100 µM | KM-20L2 > 100 µM | RXF 631 > 100 µM | DLD-1 > 100 µM

Cc1nc2nn(Cc3ccccc3)cc2c(=O)o1
inactive: XF498 74.5 µM | DMS-273 > 100 µM | DMS-114 > 100 µM | M19-MEL > 100 µM | LXFL 529 > 100 µM | KM-20L2 > 100 µM | RXF 631 > 100 µM | DLD-1 > 100 µM

COC(=O)CCC(=O)Nc1cc(Cl)ccc1Cl
inactive: XF498 > 100 µM | HOP-18 > 100 µM | DMS-114 > 100 µM | M19-MEL > 100 µM | LXFL 529 > 100 µM | KM-20L2 > 100 µM | DLD-1 > 100 µM

CC1c2c(Cl)nc3ccccc3c2Oc2c1c(Cl)nc1ccccc21
inactive: DMS-273 53.2 µM | HOP-18 7.21 µM | DMS-114 66.1 µM | M19-MEL > 100 µM | LXFL 529 53.5 µM | KM-20L2 > 100 µM | DLD-1 > 100 µM

CC(C)(C)NNC(=O)/C(=C/c1ccc(Oc2ccc(Cl)c(Cl)c2)cc1)NC(=O)c1ccccc1
inactive: XF498 > 100 µM | DMS-273 21.5 µM | HOP-18 > 100 µM | DMS-114 18.5 µM | M19-MEL > 100 µM | LXFL 529 > 100 µM | KM-20L2 95.3 µM | RXF 631 34 µM | DLD-1 31.1 µM

O=C(N/N=C/c1ccccc1O)N/N=C/c1ccccc1O
inactive: XF498 > 100 µM | DMS-273 > 100 µM | HOP-18 > 100 µM | DMS-114 > 100 µM | M19-MEL > 100 µM | LXFL 529 > 100 µM | KM-20L2 > 100 µM | RXF 631 > 100 µM | DLD-1 > 100 µM

O=C(NO)c1ccc(O)c(O)c1
inactive: XF498 > 100 µM | DMS-273 27.8 µM | HOP-18 72.3 µM | DMS-114 55.1 µM | M19-MEL > 100 µM | LXFL 529 > 100 µM | KM-20L2 > 100 µM | RXF 631 > 100 µM | DLD-1 > 100 µM
